Experimental findings from PubChem BioAssay (NCI) are described below.

Where “and” joins values, the source holds several entries; their conditions need not be identical. Equal values may be shown once.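 Exposure lasted 48 hours, with cells grown in 96-well plates and compounds tested at five concentrations. The concentration for 50% growth inhibition is given as GI50. TGI is the concentration that stops growth completely.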

Test systems include T-47D breast; MOLT-4 leukemia; NCI/ADR-RES ovarian; MDA-MB-435; OVCAR-5 ovarian; HL-60(TB) leukemia; HS 578T breast; SF-295 CNS; CCRF-CEM leukemia; HCT-116 colon.
Holding throughout (experiment): NCI anticancer screen, dose series, 48 h

As to `Nc1nccc(-c2c(-c3ccc(F)cc3)ncn2C2CCNCC2)n1`, the GI50 is 1.55 µM and 4.2 µM in the experiment on T-47D breast; 17.8 µM and 7.16 µM with MOLT-4 leukemia; > 25 µM and 5.1 µM in the experiment on NCI/ADR-RES ovarian; 2.87 µM and 4.17 µM in the experiment with MDA-MB-435; 9.62 µM and 5.81 µM with OVCAR-5 ovarian; > 25 µM and 6.47 µM in the experiment with HL-60(TB) leukemia. Further, the GI50 with HS 578T breast was > 18.3 µM and 5.54 µM; in the experiment on SF-295 CNS it was > 12.4 µM and 5.75 µM; in the experiment on CCRF-CEM leukemia, 13.2 µM and 4.52 µM; in the experiment on HCT-116 colon it was 3.52 µM and 1.47 µM. Besides, the TGI with T-47D breast, in the experiment with MOLT-4 leukemia, in the experiment on NCI/ADR-RES ovarian, in the experiment with MDA-MB-435, with OVCAR-5 ovarian and with HL-60(TB) leukemia was greater than 25 µM throughout. The TGI with HS 578T breast, in the experiment with SF-295 CNS, with CCRF-CEM leukemia and with HCT-116 colon was greater than 25 µM in each case.

With `Cc1cccc(N(C)C(=O)[C@@H]2[C@H](O)CCN2c2nc(C)cc(C(F)(F)F)c2C#N)c1`, the GI50 in the experiment on T-47D breast was 23.2 µM; in the experiment on MOLT-4 leukemia, 1.98 µM; in the experiment on NCI/ADR-RES ovarian, 22.6 µM; in the experiment with MDA-MB-435 it was 32 µM; in the experiment with OVCAR-5 ovarian it was 25.4 µM; in the experiment on HL-60(TB) leukemia, 3.56 µM. For the same molecule, the GI50 in the experiment on HS 578T breast is 25.7 µM; in the experiment on SF-295 CNS, 20.3 µM; in the experiment on CCRF-CEM leukemia it was 25.8 µM; in the experiment with HCT-116 colon it was 15.4 µM. Further, the TGI in the experiment on T-47D breast is greater than 100 µM; in the experiment with MOLT-4 leukemia, 53.8 µM; with NCI/ADR-RES ovarian, 89.1 µM; in the experiment with MDA-MB-435, greater than 100 µM; in the experiment with OVCAR-5 ovarian, 98.2 µM; in the experiment on HL-60(TB) leukemia, 17.4 µM. Besides, the TGI in the experiment with HS 578T breast was greater than 100 µM; in the experiment with SF-295 CNS, 54.2 µM; in the experiment with CCRF-CEM leukemia it was greater than 100 µM; in the experiment with HCT-116 colon, 29 µM.

`Cc1nc([P+](c2ccccc2)(c2ccccc2)c2ccccc2)c(Sc2sc(-c3ccccc3)nc2[P+](c2ccccc2)(c2ccccc2)c2ccccc2)o1`: the GI50 in the experiment with T-47D breast is 0.327 µM; in the experiment with MOLT-4 leukemia it was 1.8 µM; with NCI/ADR-RES ovarian it was 3.7 µM; in the experiment with MDA-MB-435, 1.19 µM; in the experiment on OVCAR-5 ovarian, 2.29 µM; in the experiment with HL-60(TB) leukemia it was 1.39 µM. Further, the GI50 in the experiment on HS 578T breast was 1.22 µM; in the experiment with SF-295 CNS, 2.24 µM; with CCRF-CEM leukemia, 0.959 µM; with HCT-116 colon, 0.896 µM. For the same molecule, the TGI in the experiment on T-47D breast came to 8.81 µM; in the experiment with MOLT-4 leukemia, 6.15 µM; in the experiment with NCI/ADR-RES ovarian it was 19.8 µM; in the experiment with MDA-MB-435 it was 3.46 µM; in the experiment with OVCAR-5 ovarian, 8.53 µM; in the experiment with HL-60(TB) leukemia, 4 µM. Further, the TGI in the experiment with HS 578T breast came out at 5.32 µM; with SF-295 CNS, 6.77 µM; in the experiment with CCRF-CEM leukemia, 9.4 µM; with HCT-116 colon it was 2.94 µM.

On to `COc1ccc(C2CC(c3cccc(Nc4ccnc5cc(Cl)ccc45)c3)=NN2C=O)cc1` (stereo not drawn), for which the GI50 was 0.604 µM in the experiment on T-47D breast; 0.487 µM in the experiment on MOLT-4 leukemia; 0.379 µM in the experiment on NCI/ADR-RES ovarian; 0.142 µM in the experiment with MDA-MB-435; 7.61 µM with OVCAR-5 ovarian; 0.257 µM in the experiment on HL-60(TB) leukemia. Further, the GI50 was 0.367 µM in the experiment with HS 578T breast, 0.311 µM in the experiment on SF-295 CNS, 0.434 µM in the experiment with CCRF-CEM leukemia and 0.398 µM with HCT-116 colon. The TGI was greater than 42.8 µM in the experiment on T-47D breast; greater than 100 µM in the experiment with MOLT-4 leukemia; 4.92 µM in the experiment with NCI/ADR-RES ovarian; 0.809 µM in the experiment with MDA-MB-435; greater than 100 µM in the experiment on OVCAR-5 ovarian; 0.774 µM with HL-60(TB) leukemia. Also, the TGI in the experiment with HS 578T breast came to 16.9 µM; in the experiment with SF-295 CNS it was 2.57 µM; in the experiment on HCT-116 colon, 2.56 µM.

Consider `CN(c1ncccc1CNc1nc(Nc2ccc3c(c2)CC(=O)N3)ncc1C(F)(F)F)S(C)(=O)=O`, for which the GI50 in the experiment on T-47D breast was 3.22 µM and 2.72 µM; with MOLT-4 leukemia, 2.9 µM and 2.67 µM; with NCI/ADR-RES ovarian, 13 µM; in the experiment on MDA-MB-435, 1.46 µM and 2.74 µM; in the experiment on OVCAR-5 ovarian it was 2.22 µM and 2.7 µM; in the experiment with HL-60(TB) leukemia, 2.02 µM and 1.38 µM. The GI50 with HS 578T breast is 1.73 µM and 2.47 µM; with SF-295 CNS, 2.2 µM and 2.55 µM; in the experiment with CCRF-CEM leukemia it was 3 µM and 2.46 µM; in the experiment on HCT-116 colon, 1.52 µM and 2.5 µM. The TGI is > 33 µM and 9.35 µM in the experiment with T-47D breast; 7.47 µM and 7.55 µM with MOLT-4 leukemia; greater than 85.8 µM in the experiment with NCI/ADR-RES ovarian; 11.4 µM and > 10 µM in the experiment on MDA-MB-435; 60.3 µM and > 10 µM with OVCAR-5 ovarian; 5.72 µM and 5.51 µM with HL-60(TB) leukemia. The TGI with HS 578T breast is 7.9 µM and > 10 µM; in the experiment on SF-295 CNS, greater than 100 µM; in the experiment with HCT-116 colon, 12.6 µM and > 10 µM.

On to `NS(=O)(=O)c1ccc(Nc2cc(-c3cccc(O)c3)[nH]n2)cc1`, for which the GI50 in the experiment with T-47D breast is 10 µM; in the experiment with MOLT-4 leukemia, 13.4 µM; in the experiment on NCI/ADR-RES ovarian, greater than 25 µM; in the experiment with MDA-MB-435 it was greater than 25 µM; with OVCAR-5 ovarian, greater than 25 µM; in the experiment with HL-60(TB) leukemia, greater than 25 µM. In addition, the GI50 with HS 578T breast was greater than 25 µM; in the experiment with SF-295 CNS, greater than 25 µM; in the experiment with CCRF-CEM leukemia it was 8.04 µM; in the experiment with HCT-116 colon, greater than 25 µM. For the same molecule, the TGI with T-47D breast, in the experiment with MOLT-4 leukemia, in the experiment with NCI/ADR-RES ovarian, with MDA-MB-435, in the experiment on OVCAR-5 ovarian and with HL-60(TB) leukemia was greater than 25 µM each time. Moreover, the TGI in the experiment with HS 578T breast, with SF-295 CNS, in the experiment with CCRF-CEM leukemia and with HCT-116 colon was greater than 25 µM throughout.

In the case of `O=C(Oc1cccc2cccnc12)c1cc2c(cc1Cl)SC(N(c1ccc(F)cc1)S(=O)(=O)c1ccc(Br)s1)=NS2(=O)=O`, the GI50 was 4.93 µM with T-47D breast; 28.7 µM with MOLT-4 leukemia; 18.2 µM in the experiment with NCI/ADR-RES ovarian; 26 µM in the experiment on MDA-MB-435; 26.6 µM in the experiment with OVCAR-5 ovarian; 26.4 µM with HL-60(TB) leukemia. Also, the GI50 was 38.9 µM with HS 578T breast, 22.4 µM in the experiment with SF-295 CNS, 30.5 µM in the experiment on CCRF-CEM leukemia and 19.3 µM in the experiment on HCT-116 colon. For the same molecule, the TGI in the experiment with T-47D breast was 38.9 µM; with MOLT-4 leukemia, greater than 100 µM; in the experiment with NCI/ADR-RES ovarian it was 66.4 µM; in the experiment on MDA-MB-435 it was greater than 100 µM; in the experiment on OVCAR-5 ovarian, 94.3 µM; in the experiment with HL-60(TB) leukemia it was greater than 100 µM. The TGI in the experiment with HS 578T breast was greater than 100 µM; in the experiment on SF-295 CNS, 69.7 µM; in the experiment with CCRF-CEM leukemia it was greater than 100 µM; in the experiment with HCT-116 colon, 55 µM.
